Results published in PubChem BioAssay (NCI).
Values joined by “and” are separate entries in the source; they are usually repeats but may differ in a detail not shown here. Equal values may be shown once.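 Dose response: 5 concentrations. Exposure: 48 h. Format: 96-well plates. Endpoint: linear interpolation; highest concentration if not reached. GI50 is the concentration that inhibits growth by half. TGI denotes the concentration required for complete inhibition of growth.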

Experiments:
Test in all cases: NCI-60 cell line screen, 48 h
[1] = test system: RPMI-8226 leukemia
[2] = test system: HCT-15 colon
[3] = test system: DU-145 prostate
[4] = test system: RXF 393 renal
[5] = test system: SF-268 CNS
[6] = test system: LOX IMVI melanoma
[7] = test system: OVCAR-4 ovarian
[8] = test system: MALME-3M melanoma
[9] = test system: UACC-62 melanoma
[10] = test system: K-562 leukemia

Structure (SMILES) | GI50 [1] | TGI [1] | GI50 [2] | TGI [2] | GI50 [3] | TGI [3] | GI50 [4] | TGI [4] | GI50 [5] | TGI [5] | GI50 [6] | TGI [6] | GI50 [7] | TGI [7] | GI50 [8] | TGI [8] | GI50 [9] | TGI [9] | GI50 [10] | TGI [10] [µM]
C/C(=C\C(=O)O[C@H]1[C@@H]2[C@H](C)CC[C@H]2[C@]2(C)O[C@@]1(C1CCCCC1)C[C@H]2OC(=O)CO)c1ccccc1 | 7.2 µM | 16.6 µM | 6.81 µM | 13 µM | 7.01 µM | 12.6 µM | 0.0798 µM | 7.12 µM | 0.2 µM | 8.47 µM | 6.97 µM | 12.9 µM | 7.25 µM | 13.8 µM | 7.25 µM | 13.5 µM | 6.62 µM | 12.4 µM | 7.82 µM | 17.6
COC(=O)[C@@H](C)C[C@H](Cc1ccccc1)NC(=O)c1nc([C@@H](C[C@H](C(C)C)N(C)C(=O)[C@@H](NC(=O)[C@H]2C[C@H](O)CCN2C)C(C)C)OC(C)=O)sc1C(C)C | 0.00173 µM | > 9.92 µM | 0.284 µM | > 11.1 µM | 0.00395 µM | – | 0.025 µM | > 11.1 µM | 0.00957 µM | > 11.1 µM | 0.00437 µM | > 5.38 µM | 0.0493 µM | > 11.1 µM | 0.00537 µM | > 11.1 µM | 0.00243 µM | > 11.1 µM | 0.00267 µM | > 11.1
CCC(=C(c1ccc(OCCN2CCCCC2)cc1)c1ccc(OCCN2CCCCC2)cc1)c1ccc(Cl)cc1 | 3.6 µM | > 16.7 µM | 1.05 µM | > 16.7 µM | > 16.7 µM | > 16.7 µM | 3.08 µM | 16.6 µM | 6.7 µM | > 16.7 µM | 2.31 µM | 4.84 µM | > 16.7 µM | > 16.7 µM | 2.72 µM | 5.21 µM | 3.09 µM | 6.2 µM | 0.4 µM | 1.07
COc1cc2c(c3oc(-c4ccc(O)cc4)c(O)c(=O)c13)CCC(C)(C)O2 | 0.305 µM | 0.787 µM | 0.169 µM | 0.392 µM | 0.295 µM | > 44.9 µM | 0.0379 µM | 0.176 µM | 0.122 µM | – | 0.104 µM | 0.328 µM | 0.9 µM | 2.88 µM | 1.42 µM | > 100 µM | 0.199 µM | 0.616 µM | 0.112 µM | –
COc1ccc(C2=NN(C(N)=S)C(c3ccc4c(c3)OCO4)C2)cc1 (centres undefined) | 1.88 µM | 6.33 µM | 2.88 µM | > 100 µM | 1.94 µM | 4.56 µM | 4.28 µM | > 100 µM | 2.79 µM | 8.02 µM | 2.19 µM | 4.99 µM | 3.4 µM | > 100 µM | 3.62 µM | 43.9 µM | 3.79 µM | 21.1 µM | 2.89 µM | > 100
CC(=O)/C(=C\c1ccc(Cl)cc1)c1ccccc1 | 0.133 µM | 25.9 µM | 0.331 µM | > 100 µM | 0.285 µM | > 100 µM | 0.0579 µM | – | 0.201 µM | > 100 µM | 0.123 µM | 16.2 µM | 0.382 µM | > 100 µM | 43.2 µM | > 100 µM | 0.0473 µM | > 93.8 µM | 0.0501 µM | > 100
N#CC1=C(N)Oc2c(sc3c(Br)cccc23)C1c1ccc([N+](=O)[O-])cc1 (centres undefined) | 0.116 µM | 6.49 µM | 0.0948 µM | 10.5 µM | 0.14 µM | 9.26 µM | 0.036 µM | 2.23 µM | 0.547 µM | 10.7 µM | 0.127 µM | 4.31 µM | 0.9 µM | 18.7 µM | 1.08 µM | 24.7 µM | 0.0634 µM | 12.3 µM | 0.0458 µM | 13.5
CC1CCCCCC(=O)c2c(O)cc(O)cc2CC(=O)O1 (centres undefined) | – | > 100 µM | – | > 100 µM | – | > 100 µM | – | > 100 µM | – | > 100 µM | – | > 100 µM | – | > 100 µM | – | > 100 µM | – | > 100 µM | – | > 100
Cc1c(Cl)cccc1C(=O)Nc1nc2c(s1)CN(C(=O)Nc1cccc(C(F)(F)F)c1)CC2 | 0.202 µM | > 39.2 µM | 0.129 µM | > 50 µM | 0.204 µM | > 50 µM | 0.106 µM | 0.349 µM | 0.467 µM | > 50 µM | 0.226 µM | 11 µM | 1.45 µM | > 50 µM | 0.356 µM | > 50 µM | 0.366 µM | > 50 µM | 0.131 µM | > 50
CC(=O)OCC1C(=O)OCC1C(=O)N1Cc2cc3ccccc3nc2C1 (centres undefined) | – | 4.6 µM | – | 6.99 µM | – | 14 µM | – | 2.57 µM | – | 22.6 µM | – | 5.66 µM | – | 4.89 µM | – | 3.16 µM | – | 7.99 µM | – | 9.76
N#CCCNc1nonc1-c1nc2ccccc2n1CC(=O)c1ccc(N)cc1 | 0.0309 µM | – | 0.0334 µM | > 100 µM | 0.0288 µM | 0.0984 µM | 0.0129 µM | > 100 µM | 0.023 µM | > 82 µM | 0.0326 µM | > 100 µM | 1.88 µM | > 100 µM | – | > 100 µM | < 0.0154 µM | > 100 µM | < 0.01 µM | > 100
O=C(N/N=C/c1ccc(Cl)cc1)c1ccc(NC(=O)c2ccccn2)cc1 | > 100 µM | > 100 µM | 42.1 µM | > 100 µM | 27.2 µM | > 100 µM | 15.4 µM | 63.3 µM | 16.1 µM | 95 µM | 56.1 µM | > 100 µM | 3.07 µM | 10.6 µM | 33.1 µM | > 100 µM | 24.5 µM | > 100 µM | > 100 µM | > 100
COc1ccc2c(c1)[C@@H](NC(C)=O)CCc1cc(OC)c(OC)c(OC)c1-2 | – | > 100 µM | – | > 30.9 µM | – | 0.0433 µM | – | > 8.58 µM | – | > 90.4 µM | – | > 75.6 µM | – | > 100 µM | – | > 100 µM | – | > 26.8 µM | – | > 100
O=C(O)/C=C/c1ccc(O)c(O)c1 | – | > 100 µM | – | > 100 µM | – | > 100 µM | – | > 100 µM | – | > 100 µM | – | > 100 µM | – | > 100 µM | – | > 100 µM | – | > 100 µM | – | > 100
C=CCc1cccc(C=O)c1O | 7.72 µM | > 100 µM | 6.56 µM | > 100 µM | > 100 µM | > 100 µM | 94 µM | > 100 µM | 25.2 µM | > 100 µM | 17.3 µM | > 100 µM | 21.7 µM | > 100 µM | > 100 µM | > 100 µM | 35.9 µM | > 100 µM | 32 µM | > 100
C[N+]1([O-])C2CCC1CC(OC(=O)C(CO)c1ccccc1)C2 (centres undefined) | – | > 100 µM | – | > 100 µM | – | > 100 µM | – | > 100 µM | – | > 100 µM | – | > 100 µM | – | > 100 µM | – | > 100 µM | – | > 100 µM | – | > 100
COC(=O)c1c2c(c(C)[n+]([O-])c1C)C(=O)C(NCc1ccc(OC)cc1)=CC2=O | 2.41 µM | 7.78 µM | 1.64 µM | 3.72 µM | 3.02 µM | 10.2 µM | 1.55 µM | 3.7 µM | 2.64 µM | 10.3 µM | 2.41 µM | 7.3 µM | 1.12 µM | 2.38 µM | 0.28 µM | 1.1 µM | 1.72 µM | 3.62 µM | 2.67 µM | > 100
O=C1C=C(Nc2ccccc2)c2ccccc2C1=O | 2.24 µM | 7.49 µM | 1.77 µM | 3.98 µM | 1.84 µM | 3.29 µM | 2.53 µM | 8.77 µM | 2.67 µM | 8.71 µM | 1.51 µM | 3.17 µM | 1.68 µM | 3.53 µM | 1.64 µM | 3.07 µM | 1.65 µM | 3.12 µM | 2.64 µM | 7.81
C[C@@H]1CN2[C@H]3[C@@H]1CC[C@]31CCC(=O)O[C@]1(C)[C@H]1CC[C@H]3CCC=C3[C@@H]12 | > 30 µM | > 30 µM | > 30 µM | > 30 µM | > 30 µM | > 30 µM | > 30 µM | > 30 µM | > 30 µM | > 30 µM | > 30 µM | > 30 µM | > 30 µM | > 30 µM | > 30 µM | > 30 µM | > 30 µM | > 30 µM | > 30 µM | > 30
CC1=C(CCCOC(=O)[C@H](N)CC(C)C)C2=C(C)C3(CC3)[C@@](C)(O)C(=O)C2=C1 | 21.2 µM | 57.1 µM | 2.1 µM | > 100 µM | 0.392 µM | > 100 µM | 0.492 µM | 1.29 µM | 0.736 µM | > 47.2 µM | 2.42 µM | 8.9 µM | 1.54 µM | 21.6 µM | 1.44 µM | 3.31 µM | 1.75 µM | 3.75 µM | 34.3 µM | > 100
CC1(C)N=C(N)N=C(N)N1c1ccc(OCCCNC(=O)Nc2ccc(S(=O)(=O)F)cc2)c(Cl)c1 | 1.64 µM | > 75 µM | 6.62 µM | > 100 µM | 0.277 µM | > 100 µM | 12.9 µM | > 100 µM | 0.199 µM | > 100 µM | 0.12 µM | > 100 µM | 4.05 µM | > 100 µM | 2.02 µM | > 100 µM | 0.268 µM | > 100 µM | 0.0497 µM | > 100
Cc1ccc(NC(=O)c2ccc(CN3CCN(C)CC3)cc2)cc1Nc1nc(-c2cccnc2)cs1 | 3.19 µM and 2.31 µM | 18.2 µM and > 10 µM | 4.52 µM and 3.18 µM | 19.5 µM and > 10 µM | 15 µM and > 10 µM | 28.4 µM and > 10 µM | 2.98 µM and 1.9 µM | 8.41 µM and 4 µM | 12.6 µM and > 10 µM | 26.7 µM and > 10 µM | 2.47 µM and 3.06 µM | 5.8 µM and > 10 µM | 11.6 µM and 7.8 µM | 26.5 µM and > 10 µM | 7.14 µM and 2.26 µM | 21 µM and 6.92 µM | 15 µM and 8.56 µM | 30.4 µM and > 10 µM | 0.617 µM and 2.96 µM | > 100
Cn1cc(-c2ccc3nc(-c4ccc(CC(=O)Nc5cc(C(C)(C)C)no5)cc4)cnc3c2)cn1 | 0.056 µM | > 3 µM | 0.0197 µM | > 3 µM | 0.0296 µM | > 3 µM | 0.0195 µM | > 3 µM | 0.0399 µM | > 3 µM | 0.036 µM | > 3 µM | 0.0193 µM | > 3 µM | 0.021 µM | > 0.694 µM | 0.0297 µM | > 3 µM | 0.017 µM | > 3
O=C(CCCc1ccc(N(CCCl)CCCl)cc1)NCc1ccccc1 | 4.57 µM | 27.4 µM | 13.3 µM | > 100 µM | 5.04 µM | 56.6 µM | 10.5 µM | 25.2 µM | 5.69 µM | 57.8 µM | 5.37 µM | 23.9 µM | 12.5 µM | 35.1 µM | 13.2 µM | 37.6 µM | 4.69 µM | 22 µM | 7.43 µM | 54.3
